Legend:
[1] = target: T1, Human neuropeptide Y (NPY-Y1) (Homo sapiens, UniProt P25929); experiment: Radioligand binding, human neuropeptide Y NPY-Y1 membranes, FlashPlate, [125I]-PYY; settings: compound at 10 μM, [125I]-PYY
T1 construct: purchased Perkin Elmer Biosignal
T1 sequence (P25929 1-384): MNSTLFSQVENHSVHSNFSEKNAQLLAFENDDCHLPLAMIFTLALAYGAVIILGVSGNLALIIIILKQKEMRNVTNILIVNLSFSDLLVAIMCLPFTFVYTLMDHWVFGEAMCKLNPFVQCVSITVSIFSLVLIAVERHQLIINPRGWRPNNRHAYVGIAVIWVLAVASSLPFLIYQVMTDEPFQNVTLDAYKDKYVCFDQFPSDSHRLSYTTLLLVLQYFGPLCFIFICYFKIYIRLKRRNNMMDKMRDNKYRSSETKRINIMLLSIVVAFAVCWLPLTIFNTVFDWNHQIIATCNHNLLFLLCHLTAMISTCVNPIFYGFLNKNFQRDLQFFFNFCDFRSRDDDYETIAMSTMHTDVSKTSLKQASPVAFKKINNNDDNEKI
Procedure: (§1) Cloned receptor membrane preparations from Perkin Elmer Biosignal™ were used in radioligand binding assays.
(§2) A1 Human δ-opioid (DOP), A2 Human κ-Opioid (KOP), A3 Human Melanocortin (MC3), A4 Human Melanocortin (MC4), A5 Human melanocortin (MC5), A6 Human melanin-concentrating hormone (MCH1), A7 Human μ-opioid (MOP), A8 Human neurokinin (NK1), A9 Human neuropeptide Y (NPY-Y1), A10 Human opioid (ORL1) A11 Mouse urotensin (mUR2)
(§3) Screening experiments were performed in either a 50 μl filtration or 25 μl FlashPlate assay format using the following protocol:
(§4) 19.5 μl buffer, 0.5 μl of compound diluted in DMSO, 5 μl of radioligand diluted in binding buffer.
(§5) The day prior to performing the experiment 50 μl DMSO was added to each well of the compound plates to yield compounds at a final concentration of 10 mM. Daughter plates were then created by diluting the compounds further in DMSO to a concentration of 0.5 mM. The mother plates were frozen immediately.
(§6) Immobilize membranes into FlashPlate microplates using PerkinElmer BioSignal's proprietary coating procedure. Dilute radioligand to 5× the final concentration in binding buffer. Add 19.5 μl buffer to each well of the FlashPlate. Add 0.5 μl of DMSO (total value, 5 wells), reference ligand (non-specific value, 3 wells) or compound to the corresponding wells in the FlashPlate microplate. Initiate the reaction by adding 5 μl of radioligand to each well. Apply TopSeal-A onto FlashPlate microplates. Incubate at room temperature for 1 hour in the dark. Count for 30 seconds per well on TopCount Microplate Scintillation and Luminescence Counter (PerkinElmer) using a count delay of 60 seconds.
(§7) Percentage inhibition was calculated using the following formula: [formula]

[2] = target: T2, Human melanin-concentrating hormone (MCH1) (Homo sapiens, UniProt Q99705); experiment: Radioligand binding, human melanin-concentrating hormone MCH1 membranes, FlashPlate, [125I]-S36057; settings: compound at 10 μM; for A6 radioligand binding, percentage inhibition: [125I]-S36057
T2 construct: purchased Perkin Elmer Biosignal
T2 sequence (Q99705 whole entry): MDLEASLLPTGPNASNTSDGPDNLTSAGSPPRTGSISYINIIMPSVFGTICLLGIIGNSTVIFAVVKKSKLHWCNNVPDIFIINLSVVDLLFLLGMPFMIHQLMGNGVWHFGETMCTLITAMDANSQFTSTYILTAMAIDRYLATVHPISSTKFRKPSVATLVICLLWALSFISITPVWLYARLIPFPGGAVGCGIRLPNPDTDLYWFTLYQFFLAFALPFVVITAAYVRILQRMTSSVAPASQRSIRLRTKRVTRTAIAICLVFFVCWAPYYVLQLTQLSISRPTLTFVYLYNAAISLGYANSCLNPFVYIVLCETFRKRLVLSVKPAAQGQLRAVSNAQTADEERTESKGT
Procedure: as §1, §2, §3, §4, §5, §6, §7

Human neurokinin (NK1) = target: T3, Human neurokinin (NK1) (Homo sapiens, UniProt P25103); experiment: Radioligand binding, human neurokinin NK1 membranes, filtration, [125I]-Substance P; settings: compound at 10 μM, [125I]-Substance P
T3 construct: purchased Perkin Elmer Biosignal
T3 sequence (P25103 whole entry): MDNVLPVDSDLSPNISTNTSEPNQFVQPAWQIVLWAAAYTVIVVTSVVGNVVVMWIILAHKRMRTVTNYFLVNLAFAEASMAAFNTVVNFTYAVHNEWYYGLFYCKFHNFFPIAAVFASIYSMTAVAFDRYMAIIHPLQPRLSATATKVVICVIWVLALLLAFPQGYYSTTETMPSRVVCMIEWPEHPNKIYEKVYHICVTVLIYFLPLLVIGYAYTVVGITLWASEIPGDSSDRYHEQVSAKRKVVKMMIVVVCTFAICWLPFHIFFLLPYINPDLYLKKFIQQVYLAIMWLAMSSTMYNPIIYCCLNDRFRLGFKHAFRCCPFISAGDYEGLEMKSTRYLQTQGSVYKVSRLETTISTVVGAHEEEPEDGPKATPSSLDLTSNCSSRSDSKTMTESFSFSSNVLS
Procedure: as §1, §2, §3
(§8) 44 μl membranes diluted in buffer, 1 μl of compound diluted in DMSO, 5 μl of radioligand diluted in binding buffer.
as §5
(§9) Thaw membranes on ice then dilute membranes in binding buffer at a concentration of 1 Unit per well. Dilute radio-ligand to 10 times the final concentration in binding buffer. Add 44 μl of diluted membranes to each well of the deep-well plate. Add 1 μl of DMSO (total value, 5 wells), reference ligand (non-specific value, 3 wells) or compound to the corresponding wells in the deep-well plate. Initiate the reaction by adding 5 μl of radioligand to each well and vortex gently. Incubate at room temperature for 1 hour. During incubation, pre-incubate the Multiscreen Harvest plates in 0.3% PEI. Filter over pre-soaked Multiscreen Harvest plates using a Tomtec Harvester. Wash 9 times with 500 μl of cold 50 mM Tris-HCl pH 7.4 at 4° C. and air-dry for 30 minutes at room temperature under a fume hood. Apply a bottom seal to the Multiscreen Harvest plates. Add 25 μl of MicroScint-0 to each well. Apply TopSeal-A to the plate. Count for 30 seconds per well on TopCount Microplate Scintillation and Luminescence Counter (PerkinElmer) using a count delay of 60 seconds.
as §7

Mouse urotensin (mUR2) = target: T4, Mouse urotensin (mUR2) (Mus musculus, UniProt Q8VIH9); experiment: Radioligand binding, mouse urotensin mUR2 membranes, FlashPlate, [125I]-Urotensin II; settings: compound at 10 μM, [125I]-Urotensin II
T4 construct: purchased Perkin Elmer Biosignal
T4 sequence (Q8VIH9 1-385): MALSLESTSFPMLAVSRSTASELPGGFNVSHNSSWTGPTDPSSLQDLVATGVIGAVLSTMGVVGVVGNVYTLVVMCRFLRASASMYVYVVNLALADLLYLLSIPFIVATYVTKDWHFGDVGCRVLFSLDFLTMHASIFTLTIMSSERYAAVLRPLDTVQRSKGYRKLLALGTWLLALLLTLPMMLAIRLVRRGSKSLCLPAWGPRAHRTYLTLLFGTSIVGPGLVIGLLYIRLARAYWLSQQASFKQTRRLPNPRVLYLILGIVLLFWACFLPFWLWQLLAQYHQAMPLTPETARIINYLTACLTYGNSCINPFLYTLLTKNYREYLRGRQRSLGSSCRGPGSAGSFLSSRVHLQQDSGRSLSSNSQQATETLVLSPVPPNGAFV
Procedure: as §1, §2, §3, §4, §5, §6, §7

Human opioid (ORL1) = target: T5, Human opioid (ORL1) (Homo sapiens, UniProt P41146); experiment: Radioligand binding, human opioid ORL1 membranes, FlashPlate, [125I]-Nociceptin; settings: compound at 10 μM, [125I]-Nociceptin
T5 construct: purchased Perkin Elmer Biosignal
T5 sequence (P41146 whole entry): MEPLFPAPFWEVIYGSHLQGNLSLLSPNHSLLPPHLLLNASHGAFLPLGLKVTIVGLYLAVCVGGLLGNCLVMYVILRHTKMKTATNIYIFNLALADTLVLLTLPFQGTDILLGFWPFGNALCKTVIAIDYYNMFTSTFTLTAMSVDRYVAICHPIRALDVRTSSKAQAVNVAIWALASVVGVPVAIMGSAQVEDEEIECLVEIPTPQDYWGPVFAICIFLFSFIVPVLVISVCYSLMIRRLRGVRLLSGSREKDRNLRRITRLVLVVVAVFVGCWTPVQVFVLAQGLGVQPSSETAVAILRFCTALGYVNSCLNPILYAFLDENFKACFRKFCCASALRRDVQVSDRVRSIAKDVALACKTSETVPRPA
Procedure: as §1, §2, §3, §4, §5, §6, §7

Human Melanocortin (MC4) = target: T6, Human Melanocortin (MC4) (Homo sapiens, UniProt P32245); experiment: Radioligand binding, human melanocortin MC4 membranes, FlashPlate, [125I]-NDP-αMSH; settings: compound at 10 μM, [125I]-NDP-αMSH
T6 construct: purchased Perkin Elmer Biosignal
T6 sequence (P32245 whole entry): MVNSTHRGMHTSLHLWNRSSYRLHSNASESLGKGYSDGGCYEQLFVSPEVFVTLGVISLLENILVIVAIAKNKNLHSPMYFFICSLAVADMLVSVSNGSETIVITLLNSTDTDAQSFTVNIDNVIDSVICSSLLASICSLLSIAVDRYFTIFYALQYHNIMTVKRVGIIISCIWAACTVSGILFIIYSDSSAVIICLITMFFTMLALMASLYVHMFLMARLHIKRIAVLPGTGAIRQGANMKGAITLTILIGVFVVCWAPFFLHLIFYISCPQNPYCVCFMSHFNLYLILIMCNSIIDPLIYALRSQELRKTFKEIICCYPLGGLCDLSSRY
Procedure: as §1, §2, §3, §4, §5, §6, §7

Human δ-opioid (DOP) = target: T7, Human δ-opioid (DOP) (Homo sapiens, UniProt P41143); experiment: Radioligand binding, human δ-opioid (DOP) membranes, FlashPlate, [3H]-Bremazocine; settings: compound at 10 μM, [3H]-Bremazocine
T7 construct: purchased Perkin Elmer Biosignal
T7 sequence (P41143 whole entry): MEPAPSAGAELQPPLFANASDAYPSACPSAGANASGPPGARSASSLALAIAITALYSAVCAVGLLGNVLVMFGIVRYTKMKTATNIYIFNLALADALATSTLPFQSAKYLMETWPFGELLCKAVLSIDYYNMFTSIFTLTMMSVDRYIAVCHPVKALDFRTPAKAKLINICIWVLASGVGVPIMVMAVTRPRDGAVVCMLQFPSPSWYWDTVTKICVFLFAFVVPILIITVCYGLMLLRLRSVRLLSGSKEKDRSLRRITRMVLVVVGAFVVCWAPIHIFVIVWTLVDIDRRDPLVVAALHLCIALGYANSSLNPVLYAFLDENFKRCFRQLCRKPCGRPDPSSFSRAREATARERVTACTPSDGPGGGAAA
Procedure: as §1, §2, §3, §4, §5, §6, §7

Human melanocortin (MC5) = target: T8, Human melanocortin (MC5) (Homo sapiens, UniProt P33032); experiment: Radioligand binding, human melanocortin MC5 membranes, FlashPlate, [125I]-NDP-αMSH; settings: compound at 10 μM, [125I]-NDP-αMSH
T8 construct: purchased Perkin Elmer Biosignal
T8 sequence (P33032 whole entry): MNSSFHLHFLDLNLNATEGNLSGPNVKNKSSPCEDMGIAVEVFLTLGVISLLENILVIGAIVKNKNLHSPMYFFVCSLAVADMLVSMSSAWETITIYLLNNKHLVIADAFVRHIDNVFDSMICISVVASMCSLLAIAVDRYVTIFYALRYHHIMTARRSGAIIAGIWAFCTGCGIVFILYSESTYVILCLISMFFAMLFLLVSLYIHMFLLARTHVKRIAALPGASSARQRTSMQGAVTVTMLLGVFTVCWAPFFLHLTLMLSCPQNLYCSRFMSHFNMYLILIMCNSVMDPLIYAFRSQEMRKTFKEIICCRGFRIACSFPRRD
Procedure: as §1, §2, §3, §4, §5, §6, §7

Human κ-Opioid (KOP) = target: T9, Human κ-Opioid (KOP) (Homo sapiens, UniProt P41145); experiment: Radioligand binding, human κ-opioid (KOP) membranes, filtration, [3H]-Diprenorphine; settings: compound at 10 μM, [3H]-Diprenorphine
T9 construct: purchased Perkin Elmer Biosignal
T9 sequence (P41145 whole entry): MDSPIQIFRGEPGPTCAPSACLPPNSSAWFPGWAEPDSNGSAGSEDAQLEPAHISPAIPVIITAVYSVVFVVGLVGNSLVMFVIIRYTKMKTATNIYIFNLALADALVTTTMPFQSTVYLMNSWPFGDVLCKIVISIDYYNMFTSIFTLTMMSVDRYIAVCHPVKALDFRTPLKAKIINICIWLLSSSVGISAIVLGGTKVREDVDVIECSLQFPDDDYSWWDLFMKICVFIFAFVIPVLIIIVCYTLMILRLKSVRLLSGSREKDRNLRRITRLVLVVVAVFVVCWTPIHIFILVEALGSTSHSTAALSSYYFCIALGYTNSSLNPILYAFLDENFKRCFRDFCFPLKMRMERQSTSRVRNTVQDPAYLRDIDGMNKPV
Procedure: as §1, §2, §3, §8, §5, §9, §7

Human μ-opioid (MOP) = target: T10, Human μ-opioid (MOP) (Homo sapiens, UniProt P35372); experiment: Radioligand binding, human μ-opioid (MOP) membranes, FlashPlate, [3H]-Naloxone; settings: compound at 10 μM, [3H]-Naloxone
T10 construct: purchased Perkin Elmer Biosignal
T10 sequence (P35372 whole entry): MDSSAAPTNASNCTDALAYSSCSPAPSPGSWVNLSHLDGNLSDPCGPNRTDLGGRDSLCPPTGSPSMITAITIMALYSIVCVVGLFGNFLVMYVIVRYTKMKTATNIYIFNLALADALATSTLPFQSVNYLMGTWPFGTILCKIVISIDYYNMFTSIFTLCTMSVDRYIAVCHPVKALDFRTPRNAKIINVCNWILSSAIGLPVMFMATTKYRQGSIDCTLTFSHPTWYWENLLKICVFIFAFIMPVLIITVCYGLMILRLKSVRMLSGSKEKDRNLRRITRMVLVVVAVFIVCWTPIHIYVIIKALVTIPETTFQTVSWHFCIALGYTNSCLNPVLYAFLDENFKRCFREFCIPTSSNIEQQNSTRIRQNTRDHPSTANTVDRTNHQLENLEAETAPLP
Procedure: as §1, §2, §3, §4, §5, §6, §7

Human Melanocortin (MC3) = target: T11, Human Melanocortin (MC3) (Homo sapiens, UniProt P41968); experiment: Radioligand binding, human melanocortin MC3 membranes, FlashPlate, [125I]-NDP-αMSH; settings: compound at 10 μM, [125I]-NDP-αMSH
T11 construct: purchased Perkin Elmer Biosignal
T11 sequence (P41968 whole entry): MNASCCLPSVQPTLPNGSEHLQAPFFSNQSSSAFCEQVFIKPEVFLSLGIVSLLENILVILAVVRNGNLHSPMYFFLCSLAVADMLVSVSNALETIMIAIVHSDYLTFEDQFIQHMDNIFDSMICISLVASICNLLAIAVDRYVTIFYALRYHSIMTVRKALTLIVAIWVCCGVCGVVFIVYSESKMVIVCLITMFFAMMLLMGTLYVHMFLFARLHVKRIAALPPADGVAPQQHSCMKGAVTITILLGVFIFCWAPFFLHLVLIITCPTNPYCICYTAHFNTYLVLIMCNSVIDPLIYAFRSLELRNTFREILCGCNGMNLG
Procedure: as §1, §2, §3, §4, §5, §6, §7

| SMILES | A9 radioligand binding, percentage inhibition [1] | A6 radioligand binding, percentage inhibition [2] | A8 radioligand binding, percentage inhibition (Human neurokinin (NK1)) | A11 radioligand binding, percentage inhibition (Mouse urotensin (mUR2)) | A10 radioligand binding, percentage inhibition (Human opioid (ORL1)) | A4 radioligand binding, percentage inhibition (Human Melanocortin (MC4)) | A1 radioligand binding, percentage inhibition (Human δ-opioid (DOP)) | A5 radioligand binding, percentage inhibition (Human melanocortin (MC5)) | A2 radioligand binding, percentage inhibition (Human κ-Opioid (KOP)) | A7 radioligand binding, percentage inhibition (Human μ-opioid (MOP)) | A3 radioligand binding, percentage inhibition (Human Melanocortin (MC3)) | also measured |
| --- | --- | --- | --- | --- | --- | --- | --- | --- | --- | --- | --- | --- |
| CSC1OC(COCc2ccccc2)C(O)C(OCc2ccccc2)C1NC(=O)CCNC(=N)N (stereo not shown) [compound 251] | – | – | – | – | – | – | – | – | – | – | – | A9: inhibition of radioligand binding ([1]; FlashPlate): − (“−” indicates less than 50% inhibition at 10 μM); A6: inhibition of radioligand binding ([2]; [125I]-S36057, FlashPlate): − (“−” indicates less than 50% inhibition at 10 μM); A8: inhibition of radioligand binding (Human neurokinin (NK1); filtration): + (“+” indicates greater than 50% inhibition at 10 μM); A11: inhibition of radioligand binding (Mouse urotensin (mUR2); FlashPlate): − (“−” indicates less than 50% inhibition at 10 μM); A10: inhibition of radioligand binding (Human opioid (ORL1); FlashPlate): − (“−” indicates less than 50% inhibition at 10 μM); A4: inhibition of radioligand binding (Human Melanocortin (MC4); FlashPlate): − (“−” indicates less than 50% inhibition at 10 μM); A1: inhibition of radioligand binding (Human δ-opioid (DOP); FlashPlate): − (“−” indicates less than 50% inhibition at 10 μM); A5: inhibition of radioligand binding (Human melanocortin (MC5); FlashPlate): − (“−” indicates less than 50% inhibition at 10 μM); A2: inhibition of radioligand binding (Human κ-Opioid (KOP); filtration): − (“−” indicates less than 50% inhibition at 10 μM); A7: inhibition of radioligand binding (Human μ-opioid (MOP); FlashPlate): − (“−” indicates less than 50% inhibition at 10 μM); A3: inhibition of radioligand binding (Human Melanocortin (MC3); FlashPlate): − (“−” indicates less than 50% inhibition at 10 μM) |
| COC[C@H]1OC(OCCc2ccccc2)[C@H](NC(=O)CCCN)[C@@H](OCc2cccc(O)c2)[C@@H]1O (stereo partly shown) [compound 140] | − (“−” indicates less than 50% inhibition at 10 μM) | − (“−” indicates less than 50% inhibition at 10 μM) | + (“+” indicates greater than 50% inhibition at 10 μM) | − (“−” indicates less than 50% inhibition at 10 μM) | − (“−” indicates less than 50% inhibition at 10 μM) | − (“−” indicates less than 50% inhibition at 10 μM) | − (“−” indicates less than 50% inhibition at 10 μM) | − (“−” indicates less than 50% inhibition at 10 μM) | − (“−” indicates less than 50% inhibition at 10 μM) | − (“−” indicates less than 50% inhibition at 10 μM) | − (“−” indicates less than 50% inhibition at 10 μM) | – |
| CO[C@H]1[C@H](O)[C@@H](COCc2ccc(Cl)cc2)OC(OCCc2ccccc2)[C@@H]1NC(=O)CCCN (stereo partly shown) [compound 121] | − (“−” indicates less than 50% inhibition at 10 μM) | − (“−” indicates less than 50% inhibition at 10 μM) | + (“+” indicates greater than 50% inhibition at 10 μM) | − (“−” indicates less than 50% inhibition at 10 μM) | − (“−” indicates less than 50% inhibition at 10 μM) | − (“−” indicates less than 50% inhibition at 10 μM) | − (“−” indicates less than 50% inhibition at 10 μM) | + (“+” indicates greater than 50% inhibition at 10 μM) | − (“−” indicates less than 50% inhibition at 10 μM) | − (“−” indicates less than 50% inhibition at 10 μM) | − (“−” indicates less than 50% inhibition at 10 μM) | – |
| COC[C@H]1OC(OCc2ccc(-c3ccccc3)cc2)[C@H](NC(=O)CCCN)[C@@H](OCc2cccc(O)c2)[C@@H]1O (stereo partly shown) [compound 131] | − (“−” indicates less than 50% inhibition at 10 μM) | + (“+” indicates greater than 50% inhibition at 10 μM) | − (“−” indicates less than 50% inhibition at 10 μM) | − (“−” indicates less than 50% inhibition at 10 μM) | − (“−” indicates less than 50% inhibition at 10 μM) | − (“−” indicates less than 50% inhibition at 10 μM) | − (“−” indicates less than 50% inhibition at 10 μM) | − (“−” indicates less than 50% inhibition at 10 μM) | − (“−” indicates less than 50% inhibition at 10 μM) | – | − (“−” indicates less than 50% inhibition at 10 μM) | – |
